Paper PMC8016998, “Identification of potential therapeutic antimicrobial peptides against Acinetobacter baumannii in a mouse model of pneumonia” (Scientific Reports, 2021)
No end group written: not given here.

How the values were obtained:
[1] = test system: MDRAB clinical strain AS40; assay type: cell-based, Acinetobacter baumannii; settings: 24 h
[2] = test system: MDRAB clinical strain Y92; assay type: cell-based, Acinetobacter baumannii; settings: 24 h
[3] = test system: MDRAB clinical strain AZ93; assay type: cell-based, Acinetobacter baumannii; settings: 24 h
Protocol: (§1) MBC were determined by extending the MIC procedure in sterilized 96-well polypropylene microtiter plates according to the broth microdilution guidelines of the Clinical and Laboratory Standards Institute with some modification[47]. […] In addition, 10 µL was drawn from each well with no visible turbidity onto LB agar plates and incubated for 24 h at 37 °C. The lowest concentration showing no visible growth on agar subculture was used as the MBC value. All experiments were performed in triplicate.

[4] = test system: MDRAB clinical strain AK29; assay type: cell-based, Acinetobacter baumannii; settings: 24 h
[5] = test system: MDRAB clinical strain U80; assay type: cell-based, Acinetobacter baumannii; settings: 24 h
[6] = test system: MDRAB clinical strain AK61; assay type: cell-based, Acinetobacter baumannii; settings: 24 h
[7] = test system: Acinetobacter baumannii 17,978; assay type: cell-based; settings: 17,978, 24 h;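 further: CLSI broth microdilution in 96-well polypropylene plates, MBC taken as lowest concentration giving no growth when clear wells were subcultured on LB agar for 24 h at 37 °C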
[8] = test system: MDRAB clinical strain AN10; assay type: cell-based, Acinetobacter baumannii; settings: 24 h
Protocol: as §1

[9] = test system: MDRAB clinical strain D29; assay type: cell-based, Acinetobacter baumannii; settings: 24 h
Protocol: as §1

[10] = test system: MDRAB clinical strain O59; assay type: cell-based, Acinetobacter baumannii; settings: 24 h
Protocol: as §1

[11] = test system: MDRAB clinical strain J49; assay type: cell-based, Acinetobacter baumannii; settings: 24 h
Protocol: as §1

MDRAB clinical strains = assay type: cell-based, Acinetobacter baumannii; settings: 24 h
[12] = test system: MDRAB clinical strain L87; assay type: cell-based, Acinetobacter baumannii; settings: 24 h
MDRAB clinical strain K2 = assay type: cell-based, Acinetobacter baumannii; settings: 24 h
Protocol: as §1

[13] = test system: MDRAB clinical strain AG51; assay type: cell-based, Acinetobacter baumannii; settings: 24 h
Protocol: as §1

[14] = test system: MDRAB clinical strain AE6; assay type: cell-based, Acinetobacter baumannii; settings: 24 h
Protocol: as §1

[15] = test system: MDRAB clinical strain AL87; assay type: cell-based, Acinetobacter baumannii; settings: 24 h
[16] = test system: MDRAB clinical strain AF11; assay type: cell-based, Acinetobacter baumannii; settings: 24 h
Protocol: as §1

[17] = test system: MDRAB clinical strain AO80; assay type: cell-based, Acinetobacter baumannii; settings: 24 h
[18] = test system: Acinetobacter baumannii 19,606; assay type: cell-based; settings: 19,606, 24 h
Protocol: as §1

[19] = test system: MDRAB clinical strain AF93; assay type: cell-based, Acinetobacter baumannii; settings: 24 h
[20] = test system: MDRAB clinical strain AE5; assay type: cell-based, Acinetobacter baumannii; settings: 24 h
[21] = test system: MDRAB clinical strain AF12; assay type: cell-based, Acinetobacter baumannii; settings: 24 h
[22] = test system: MDRAB clinical strain U95; assay type: cell-based, Acinetobacter baumannii; settings: 24 h
Protocol: as §1

[23] = test system: MDRAB clinical strain W11; assay type: cell-based, Acinetobacter baumannii; settings: 24 h
Protocol: as §1

Substance: GIKIAKKAITIAKKIAKIYW [GW-Q6]
- MBC [1]: 16 µg/mL
- MIC [1]: 16 µg/mL
- MBC [2]: 8 µg/mL
- MIC [2]: 8 µg/mL
- MBC [3]: 8 µg/mL
- MIC [3]: 8 µg/mL
- MBC [4]: 8 µg/mL
- MIC [4]: 8 µg/mL
- MBC [5]: 16 µg/mL
- MIC [5]: 16 µg/mL
- MBC [6]: 16 µg/mL
- MIC [6]: 16 µg/mL
- MBC [7]: 16 µg/mL
- MIC [7]: 16 µg/mL
- MBC [8]: 8 µg/mL
- MIC [8]: 8 µg/mL
- MBC [9]: 32 µg/mL
- MIC [9]: 16 µg/mL
- MBC [10]: 32 µg/mL
- MIC [10]: 16 µg/mL
- MBC [11]: 16 µg/mL
- MIC [11]: 16 µg/mL
- MBC (MDRAB clinical strains): 8 to 32 µg/mL
- MIC (MDRAB clinical strains): 8 to 16 µg/mL
- MBC [12]: 16 µg/mL
- MIC [12]: 16 µg/mL
- MBC (MDRAB clinical strain K2): 8 µg/mL
- MIC (MDRAB clinical strain K2): 8 µg/mL
- MBC [13]: 8 µg/mL
- MIC [13]: 8 µg/mL
- MBC [14]: 8 µg/mL
- MIC [14]: 8 µg/mL
- MBC [15]: 8 µg/mL
- MIC [15]: 8 µg/mL
- MBC [16]: 8 µg/mL
- MIC [16]: 8 µg/mL
- MBC [17]: 16 µg/mL
- MIC [17]: 16 µg/mL
- MBC [18]: 16 µg/mL
- MIC [18]: 16 µg/mL
- MBC [19]: 16 µg/mL
- MIC [19]: 8 µg/mL
- MBC [20]: 8 µg/mL
- MIC [20]: 8 µg/mL
- MBC [21]: 8 µg/mL
- MIC [21]: 8 µg/mL
- MBC [22]: 32 µg/mL
- MIC [22]: 16 µg/mL
- MBC [23]: 16 µg/mL
- MIC [23]: 16 µg/mL

Substance: GRFKRFRKKFKKLFKKLSPVIPLLHLG [BMAP-27]
- MBC [1]: 8 µg/mL
- MIC [1]: 8 µg/mL
- MBC [2]: 8 µg/mL
- MIC [2]: 8 µg/mL
- MBC [3]: 8 µg/mL
- MIC [3]: 8 µg/mL
- MBC [4]: 8 µg/mL
- MIC [4]: 4 µg/mL
- MBC [5]: 16 µg/mL
- MIC [5]: 8 µg/mL
- MBC [6]: 8 µg/mL
- MIC [6]: 8 µg/mL
- MBC [7]: 16 µg/mL
- MIC [7]: 16 µg/mL
- MBC [8]: 4 µg/mL
- MIC [8]: 4 µg/mL
- MBC [9]: 16 µg/mL
- MIC [9]: 16 µg/mL
- MBC [10]: 16 µg/mL
- MIC [10]: 16 µg/mL
- MBC [11]: 8 µg/mL
- MIC [11]: 8 µg/mL
- MIC (MDRAB clinical strains): 4 to 16 µg/mL
- MBC [12]: 16 µg/mL
- MIC [12]: 16 µg/mL
- MBC (MDRAB clinical strain K2): 32 µg/mL
- MIC (MDRAB clinical strain K2): 16 µg/mL
- MBC [13]: 8 µg/mL
- MIC [13]: 4 µg/mL
- MBC [14]: 16 µg/mL
- MIC [14]: 16 µg/mL
- MBC [15]: 8 µg/mL
- MIC [15]: 8 µg/mL
- MBC [16]: 16 µg/mL
- MIC [16]: 8 µg/mL
- MBC [17]: 8 µg/mL
- MIC [17]: 8 µg/mL
- MBC [18]: 8 µg/mL
- MIC [18]: 8 µg/mL
- MBC [19]: 8 µg/mL
- MIC [19]: 8 µg/mL
- MBC [20]: 16 µg/mL
- MIC [20]: 8 µg/mL
- MBC [21]: 8 µg/mL
- MIC [21]: 8 µg/mL
- MBC [22]: 16 µg/mL
- MIC [22]: 16 µg/mL
- MBC [23]: 16 µg/mL
- MIC [23]: 16 µg/mL

Substance: GWGSFFKKAAHVGKHVGKAALTHYL-NH2 [Pleurocidin]
- MBC [1]: 8 µg/mL
- MIC [1]: 8 µg/mL
- MBC [2]: 8 µg/mL
- MIC [2]: 8 µg/mL
- MBC [3]: 8 µg/mL
- MIC [3]: 8 µg/mL
- MBC [4]: 16 µg/mL
- MIC [4]: 8 µg/mL
- MBC [5]: 16 µg/mL
- MIC [5]: 16 µg/mL
- MBC [6]: 16 µg/mL
- MIC [6]: 16 µg/mL
- MBC [7]: 16 µg/mL
- MIC [7]: 16 µg/mL
- MBC [8]: 16 µg/mL
- MIC [8]: 16 µg/mL
- MBC [9]: 32 µg/mL
- MIC [9]: 16 µg/mL
- MBC [10]: 16 µg/mL
- MIC [10]: 16 µg/mL
- MBC [11]: 16 µg/mL
- MIC [11]: 16 µg/mL
- MBC (MDRAB clinical strains): 8 to 32 µg/mL
- MIC (MDRAB clinical strains): 8 to 32 µg/mL
- MBC [12]: 32 µg/mL
- MIC [12]: 32 µg/mL
- MBC (MDRAB clinical strain K2): 32 µg/mL
- MIC (MDRAB clinical strain K2): 16 µg/mL
- MBC [13]: 8 µg/mL
- MIC [13]: 8 µg/mL
- MBC [14]: 16 µg/mL
- MIC [14]: 16 µg/mL
- MBC [15]: 8 µg/mL
- MIC [15]: 8 µg/mL
- MBC [16]: 16 µg/mL
- MIC [16]: 8 µg/mL
- MBC [17]: 8 µg/mL
- MIC [17]: 8 µg/mL
- MBC [18]: 16 µg/mL
- MIC [18]: 16 µg/mL
- MBC [19]: 16 µg/mL
- MIC [19]: 8 µg/mL
- MBC [20]: 16 µg/mL
- MIC [20]: 16 µg/mL
- MBC [21]: 8 µg/mL
- MIC [21]: 8 µg/mL
- MBC [22]: 32 µg/mL
- MIC [22]: 32 µg/mL
- MBC [23]: 16 µg/mL
- MIC [23]: 16 µg/mL
